Article PMC6749364, “Pharmacokinetics and Tissue Distribution of Alnustone in Rats after Intravenous Administration by Liquid Chromatography-Mass Spectrometry” (Molecules, 2019)

Tests used:
[1] = system: LO-2 (human normal liver cells); design: method as in earlier work; conditions: LO-2 cell line; cited from earlier work
[2] = Plasma pharmacokinetic study after single intravenous administration; type: in vivo; conditions: Sprague-Dawley, rat, rats, single i.v. 5 mg/kg
Description: In this study, a direct protein precipitation method was applied to extract alnustone and IS from the biological matrix. An aliquot 100 μL of plasma, 50 μL of IS solution (1 μg/mL) and 200 μL of precipitate agent acetonitrile with 0.5% formic acid was added into a 1.5 mL Eppendorf tube. The mixture was vortex-mixed for 30 s at room temperature, and centrifuged at 12,000× g for 10 min. […] The residuals were reconstituted in 100 μL of methanol-0.1% fomic acid water (20:80, v/v) by vortex mixing for 30 s. After centrifuging at 12,000× g for 10 min, a 10 μL aliquot of the supernatant was used for the UHPLC-MS/MS analysis. The mobile phase consisted of methanol and 0.1% formic acid water using a gradient dilution at a flow rate of 0.3 mL/min. The column temperature was maintained at 30 °C. Alnustone was quantitatively determined with MRM in the positive ion mode, and nitrogen was used to assist nebulization in the ESI source. The MS parameters were set as follows: The ionspray voltage (IS) 5500 V; nebulizer gas (gas 1) 19 arbitrary units; curtain gas (CUR) 10 arbitrary units; collision cell exit potential (CXP) 7.0 V; entrance potential (EP) 10.0 V. The optimization of the MS transitions using the multiple-reaction monitoring (MRM) mode were accomplished as alnustone m/z 262.9→105.2 and IS (caffeine) m/z 195.2→138.0, respectively. For the pharmacokinetic study, 12 SD rats fasted for 12 h with free access to water prior to administration. After the rats were tail intravenously administrated of alnustone (5 mg/kg), a blood sample (0.4 mL) was collected from the orbital vein into heparinized tubes at appropriate time intervals (2 min, 5 min, 10 min, 15 min, 30 min, 45 min, 1 […]). The blank plasma samples were prepared before dosing. All blood samples were immediately centrifuged at 12,000× g for 10 min and stored at -75 °C until analysis. The pharmacokinetic parameters were evaluated using DAS 3.2.8 pharmacokinetic program.

SMILES: O=C(/C=C/C=C/c1ccccc1)CCc1ccccc1 [alnustone, Alnustone]
- antitumor activity in vitro [1]: significant antitumor activity
- Tmax [2]: 2 min
- AUC(0-inf) ([2]; n = 12): 6030 ± 472 ng·h/mL
- Cmax ([2]; n = 12): 7070 ± 821 ng/mL
- Vd ([2]; n = 12): 1.57 ± 0.18 L/kg
- clearance ([2]; n = 12): 13.8 mL/min/kg
- half-life ([2]; n = 12): 1.31 ± 0.19 h
- MRT inf ([2]; n = 12, read-out: MRT0–∞): 1.6 ± 0.22 h
- MRT last ([2]; read-out: MRT0-t (total mean residence time up to 10 h)): 1.6 ± 0.22 h
- AUC(0-t) ([2]; up to 10 h, n = 12): 6010 ± 567 ng·h/mL
